Tests used:
[1] = tested on: IL-6 production induced by lipopolysaccharide (LPS) in human corneal epithelial cells (HCE-T); test: Inhibition of LPS-induced IL-6 production in human corneal epithelial cells (GR agonist activity); format: cell-based; conditions: Corneal epithelial cell, 10 μL of 100 μM test compound solution per well, 4 hours incubation, efficacy relative to DEX
[2] = tested on: carrageenan-induced paw edema model in rats; test: Carrageenan-induced paw edema model; format: in vivo; conditions: female Lewis rat; 10 mg/kg oral, 30 minutes before carrageenan; paw volume 3 hr after injection; read-out: Inhibition ratio of paw edema (%)
Protocol: The inhibitory effect for paw edema using carrageenan-induced paw edema model in rats is known as one of the general methods for testing the inhibitory effect on inflammation on the joint and the like. Therefore, the inhibitory effect of the present compound for paw edema was carried out, the inhibition rate of paw edema was calculated, and then the anti-inflammatory effect of the present compound was evaluated based on the rate. The concrete method of the test is described below.
A 2 mg/mL test compound suspension was prepared by adding 1% methyl cellulose (base) to the test compound.
1) The weight and right hind paw volume of female Lewis rat (8˜10 weeks) were measured before drug administration.
2) The test compound suspension was administered at 10 mg/kg to the test compound group. Meanwhile, 1% methyl cellulose was administered orally at 5 mL/kg to the sham-operation group and vehicle group (control group).
3) After 30 minutes from oral administration, 0.1 mL of a 1% w/v carrageenan/distilled water solution was subcutaneously injected into right foot pad. 0.1 mL of distilled water was subcutaneously injected for sham-operation group.
4) The right hind paw volume was measured 3 hr after injection of carrageenan or distilled water.
(Formulation Concerning Estimation of Drug Activity) The increase ratio of paw volume (%)=100×(right hind paw volume 3 hr after injection of carrageenan or distilled water (mL)−right hind paw volume before the test compound administration (mL))/right hind paw volume before the test compound administration (mL) (Calculation Equation 1) The inhibition ratio of paw edema (%)=100−100×(the increase ratio of paw volume of each test compound group (%)−the increase ratio of paw volume of sham-operation group (%))/(the increase of paw volume of vehicle group (%)−the increase of paw volume of sham-operation group (%)) (Calculation Equation 2) (Test Results and Discussion)

[3] = tested on: choroidal neovascularization (CNV) model in rats; test: Laser induced choroidal neovascularization model; format: in vivo; conditions: Brown Norway male rats; 1% (w/v) eye drops four times a day or 20 mg/mL subconjunctival injection (route not given); fluorescein angiography 7 days after laser; mean of 7-8 eyes
Protocol: The choroidal neovascularization (CNV) model in rats is known as one of the popular methods for evaluating the CNV inhibitory effect of drugs. This method is reported in Graefe's Arch. Cli. Exp. Ophthalmol., 235, 313-319 (1997). According to this method, the CNV examinations were performed to evaluate the CNV inhibitory effect of test compounds by comparing the incidence rates of CNV in vehicle group (control group) with test compound-treated groups.
For eye drop administration, a 1% (w/v) test compound suspension was prepared by adding 0.5% polysorbate 80/saline to the test compound. For subconjunctival injection, a 20 mg/mL test compound suspension was prepared by adding 0.5% hydrogenated castor oil/saline to the test compound.
1) Brown Norway male rats (7-8 weeks) were anesthetized with intramuscular injection (1 mL/kg) of the mixed solution (5% ketamine HCl:2% xylazine HCl=7:1).
2) After mydriasis using tropicamide phenylephrine hydrochloride eye drops (trade name Mydrin P), laser photocoagulation of bruch's membrane in rats was performed with krypton laser photocoagulation machine. Laser irradiation was performed at 8 points per eye avoiding thick retinal blood vessels in ocular fundus and focusing on the depth of retina. The conditions were 100 μm spot size, 100 mW power, 0.1 second duration.
3) After laser photocoagulation, photographs of ocular fundus were taken and the laser photocoagulation (laser irradiation) points were confirmed.
1) In case of eye drops administration, a test compound suspension was administrated four times a day from laser irradiation day (the 1st day) to the 8th day. In case of subconjunctival injection, a 50 μL test compound suspension was injected into conjunctivae just after laser irradiation.
2) In vehicle group (control group), 0.5% polysorbate 80/saline or 0.5% hydrogenated castor oil/saline was used instead of a test compound suspension. And the test was performed according to the method 1).
1) 7 days after laser irradiation, 0.1 mL of 10% fluorescein was injected into rat tail vein and fluorescein angiography was performed.
2) When the fluorescent leakage was not detected in the fluorescent angiography, the spot was judged to be a negative spot. When the fluorescent leakage was detected, the spot was judged to be a positive spot. When the fluorescent leakage was detected as a little leakage, two spots were counted as one positive spot.
3) The neovascular incidence rate was calculated according to the equation 1. According to the equation 2, the ratio of neovascular incidence rate in test compound group to vehicle group was calculated. Neovascular incidence rate (%)=(Positive spots/all spots)×100 (Equation 1) Angiogenic inhibition ratio in test compound group (%)=(1−Ax/Ao)×100 (Equation 2)
Ao: Neovascular incidence rate in vehicle group (control group)
Ax: Neovascular incidence rate in test compound group

`COc1ccccc1NCc1c(-c2ccc(OS(=O)(=O)C3CC3)cc2OC)ccc2c1N(C)C(=O)C(C)(C)N2` [Compound No. 2-2, 7-(4-Cyclopropylsulfonyloxy-2-methoxyphenyl)-8-(2-methoxy-phenylaminomethyl)-1,3,3-trimethyl-3,4-dihydro-1H-quinoxalin-2-one] was tested, and the Emax [1] was 86%, the inhibition in vivo at 10 mg/kg [2] was 51% and the “Angiogenic inhibition ratio (%)” value [3] was 41%.

Source: US8664221B2 (Santen Pharmaceutical Co., Ltd., priority 2008, dated 2014)
